Assay results published in PubChem BioAssay (NCI).
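Assay format: 96-well plates, 48-hour exposure. GI50 = concentration required for 50% inhibition of growth. The concentration for full growth arrest is given as TGI.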

Tests used:
Assay in all cases: DTP human tumour cell line panel, 48 h
NCI-H23 lung = test system: NCI-H23 lung
SN12C renal = test system: SN12C renal
EKVX NSCLC = test system: EKVX NSCLC
OVCAR-4 ovarian = test system: OVCAR-4 ovarian
SK-MEL-2 melanoma = test system: SK-MEL-2 melanoma
CCRF-CEM leukemia = test system: CCRF-CEM leukemia
KM12 colon = test system: KM12 colon
U251 CNS = test system: U251 CNS
A498 renal = test system: A498 renal
HCT-15 colon = test system: HCT-15 colon

Compound | TGI (NCI-H23 lung) | TGI (SN12C renal) | TGI (EKVX NSCLC) | TGI (OVCAR-4 ovarian) | TGI (SK-MEL-2 melanoma) | TGI (CCRF-CEM leukemia) | TGI (KM12 colon) | TGI (U251 CNS) | TGI (A498 renal) | TGI (HCT-15 colon) | GI50 (NCI-H23 lung) | GI50 (SN12C renal) | GI50 (EKVX NSCLC) | GI50 (OVCAR-4 ovarian) | GI50 (SK-MEL-2 melanoma) | GI50 (CCRF-CEM leukemia) | GI50 (KM12 colon) | GI50 (U251 CNS) | GI50 (A498 renal) | GI50 (HCT-15 colon)
C[C@H]1C=C2C(=O)O[C@H]3CC[C@@H](C1)[C@@]23O | 9.53 µM | 6.76 µM | 8.36 µM | 24.4 µM | 10.1 µM | 6.05 µM | 12.7 µM | 19.5 µM | 22.5 µM | 14.6 µM | – | – | – | – | – | – | – | – | – | –
COC(C)C(O)(C(=O)OCC1=CCN2CCC(O)C12)C(C)(C)O (centres undefined) | > 100 µM | > 100 µM | > 100 µM | > 100 µM | > 100 µM | > 100 µM | > 100 µM | > 100 µM | > 100 µM | > 100 µM | – | – | – | – | – | – | – | – | – | –
CC1(C)CCC[C@]2(C)c3ccccc3C(=O)CC12 (some centres undefined) | > 100 µM | > 100 µM | > 100 µM | > 100 µM | 61.3 µM | > 100 µM | > 100 µM | > 100 µM | 71.4 µM | > 100 µM | 39.4 µM | 44.9 µM | 42.9 µM | > 100 µM | 22 µM | 31.7 µM | 23.8 µM | 42.3 µM | 26 µM | 24.9 µM
Nc1cccc2c1C(=O)c1cccc(NC(=O)c3ccccc3)c1C2=O | > 100 µM | > 80.6 µM | 4.52 µM | > 100 µM | 7.26 µM | > 100 µM | > 100 µM | 13.8 µM | 6.56 µM | > 100 µM | 0.903 µM | 0.723 µM | 0.421 µM | 5.07 µM | 0.25 µM | 0.401 µM | 0.374 µM | 0.54 µM | 0.306 µM | 0.448 µM
COc1cc(C(=O)c2cocc2C(=O)c2ccc3c(c2)OCO3)cc(OC)c1OC | 26.2 µM | 56.1 µM | > 58.3 µM | > 54.3 µM | > 41.7 µM | > 51.6 µM | 59.1 µM | 8.35 µM | 26.2 µM | 35.3 µM | – | – | – | – | – | – | – | – | – | –
COc1cc2c3c(n(CCCNCCCN)c(=O)c2cc1OC)-c1cc2c(cc1C3=O)OCO2 | > 100 µM | 13.3 µM | 19.4 µM | 16.7 µM | 7.33 µM | 15.8 µM | 16.9 µM | 11.4 µM | 35.6 µM | > 100 µM | > 100 µM | 2.34 µM | 5.27 µM | 2.83 µM | 2.35 µM | 0.22 µM | 3.51 µM | 1.25 µM | 18 µM | 25 µM
O/N=C/c1ccc(O)c(O)c1 | > 100 µM | > 100 µM | > 100 µM | > 100 µM | > 100 µM | > 100 µM | > 100 µM | > 100 µM | > 100 µM | > 100 µM | – | – | – | – | – | – | – | – | – | –
CC(C)(C)OC(=O)Nc1ccc2c(c1)C(NC(=O)Nc1cccc(C#N)c1)CC(C)(C)O2 (centres undefined) | > 81.3 µM | > 100 µM | > 69.6 µM | > 100 µM | 31.4 µM | > 100 µM | > 100 µM | > 58.2 µM | > 100 µM | > 51.3 µM | 1.09 µM | 4.57 µM | 0.691 µM | 1.18 µM | 6.4 µM | 3.8 µM | 3.39 µM | 1.76 µM | 7.14 µM | 1.89 µM
CC(=O)[CH-]C(=O)c1ccccc1.CC(=O)[CH-]C(=O)c1ccccc1.[O-]c1ccc2c(c1)OCO2.[O-]c1ccc2c(c1)OCO2.[Ti+4] | 64.4 µM | > 100 µM | 72.9 µM | > 100 µM | 57.7 µM | 30.3 µM | 38.2 µM | > 100 µM | 64.8 µM | > 100 µM | 22.4 µM | 43.9 µM | 25.8 µM | 31.8 µM | 22.5 µM | 3.66 µM | 16.2 µM | 22.2 µM | 32.7 µM | 34.4 µM
COc1ccc([C@@H]2OC(=O)C3C2C(=O)O[C@H]3c2ccc(OC)c(OC)c2)cc1OC (some centres undefined) | > 100 µM | > 100 µM | > 100 µM | > 100 µM | > 100 µM | > 100 µM | > 100 µM | > 100 µM | > 100 µM | > 100 µM | – | – | – | – | – | – | – | – | – | –
CO/N=C(\COc1ccc2oc(-c3ccccc3)cc(=O)c2c1)c1ccc(F)cc1 | 64.7 µM | 35 µM | > 100 µM | 55.8 µM | 73.3 µM | > 100 µM | > 100 µM | 35.1 µM | 82.9 µM | > 100 µM | 23.1 µM | 16.9 µM | 35.9 µM | 22.3 µM | 24.4 µM | > 100 µM | 46.9 µM | 18 µM | 29.1 µM | 40.2 µM
O=C[C@@H](CO)O[C@H](C=O)n1cnc2c(=O)[nH]cnc21 | 1530 µM | 1380 µM | 1320 µM | 1150 µM | 1400 µM | 559 µM | 1270 µM | 2500 µM | 2150 µM | 417 µM | – | – | – | – | – | – | – | – | – | –
COc1cc(CNc2oc(-c3ccccc3)c(-c3ccccc3)c2C#N)cc(CN2CCN(C)CC2)c1O | 3.79 µM | 15.3 µM | 3.59 µM | 3.99 µM | 4.56 µM | 10 µM | 3.55 µM | 3.58 µM | 3.48 µM | 2.77 µM | 1.86 µM | 3.95 µM | 1.81 µM | 1.86 µM | 2.17 µM | 2.85 µM | 1.9 µM | 1.76 µM | 1.55 µM | 1.32 µM
COc1ccc2[nH]c(C(=O)OCc3ccc4c(Cl)cc(Cl)c(O)c4n3)cc2c1 | 3.37 µM | 2.51 µM | 2.88 µM | 2.92 µM | 3.37 µM | 2.08 µM | 3.49 µM | 2.94 µM | 3.73 µM | 2.44 µM | 1.57 µM | 1.24 µM | 1.45 µM | 1.49 µM | 1.61 µM | 0.312 µM | 1.76 µM | 1.55 µM | 1.91 µM | 0.698 µM
CC/C(=C/c1ccc(OC)cc1OC)[N+](=O)[O-] | 20.1 µM | 6.61 µM | 28.9 µM | 17.3 µM | 8.73 µM | 7.01 µM | 6.75 µM | 16.2 µM | 10.2 µM | 4.54 µM | 4.51 µM | 2.31 µM | 15.4 µM | 4.66 µM | 2.64 µM | 2.05 µM | 2.41 µM | 4.93 µM | 2.75 µM | 1.87 µM
Cc1ccc(C(=O)NC2CC2)cc1-c1ccc2[nH]ncc2c1 | > 25 µM | > 25 µM | > 25 µM | > 25 µM | > 25 µM | > 25 µM | > 25 µM | > 25 µM | > 25 µM | > 25 µM | > 25 µM | > 25 µM | > 25 µM | > 25 µM | > 25 µM | > 25 µM | > 25 µM | > 25 µM | > 12.7 µM | > 25 µM
CC1SC(c2ccc(Cl)cc2Cl)N(NC(=O)C(O)c2ccccc2)C1=O (centres undefined) | > 100 µM | > 100 µM | > 100 µM | 98.5 µM | > 100 µM | > 100 µM | > 100 µM | > 100 µM | > 100 µM | > 100 µM | 64.1 µM | 85.4 µM | 68.8 µM | 28.5 µM | > 100 µM | 65.4 µM | 51.2 µM | 61.4 µM | > 100 µM | 61.3 µM
O=c1[nH]c(=O)n(C2CC(O)C(CO)O2)cc1C(F)(F)F (centres undefined) | > 100 µM | > 100 µM | > 100 µM | > 100 µM | > 100 µM | > 100 µM | > 100 µM | > 100 µM | > 92 µM | > 100 µM | 1.95 µM | 3.8 µM | > 54.1 µM | > 100 µM | > 100 µM | 0.557 µM | > 100 µM | 4.42 µM | – | 46 µM
N#Cc1cccc(N2C(=O)C3C4C=CC(C3C2=O)C2C(=O)N(c3cccc(C#N)c3)C(=O)C42)c1 (centres undefined) | 52.5 µM | > 39.8 µM | > 100 µM | > 63.1 µM | 34.7 µM | 53.7 µM | > 56.2 µM | 26.8 µM | 42 µM | > 63.1 µM | – | – | – | – | – | – | – | – | – | –
COc1ccc(S(=O)(=O)N(C(C)=O)c2ccccc2/C=C/c2cc[n+]([O-])cc2)cc1 | > 10 µM | > 10 µM | > 10 µM | > 10 µM | > 10 µM | > 7.66 µM | > 10 µM | > 10 µM | > 2.8 µM | > 10 µM | 1.22 µM | 1.61 µM | 1.02 µM | > 6.79 µM | 0.54 µM | 0.762 µM | 0.335 µM | 0.504 µM | 0.209 µM | 0.742 µM
C=C(C)[C@@H]1CC[C@]2(C(=O)NS(=O)(=O)c3ccccc3)CC[C@]3(C)[C@H](CC[C@@H]4[C@@]5(C)CC[C@H](OC(=O)NS(=O)(=O)c6ccccc6)C(C)(C)[C@@H]5CC[C@]43C)[C@@H]12 | 8.51 µM | 15.7 µM | 21.9 µM | 51.4 µM | 4.97 µM | 19.5 µM | 2.96 µM | 5.96 µM | 4.69 µM | 4.65 µM | 2.41 µM | 2.34 µM | 3.17 µM | 3.04 µM | 2.01 µM | 2.29 µM | 1.34 µM | 1.46 µM | 1.65 µM | 1.62 µM
COc1cc(NCCCCCN=C(N)NC(N)=NC(C)C)c2ncccc2c1 | 2.3 µM | 14.8 µM | 18.5 µM | 0.633 µM | 5.36 µM | 17.4 µM | 3.28 µM | 11.8 µM | 28.1 µM | > 100 µM | 0.401 µM | 2.32 µM | 2.28 µM | 0.0363 µM | 1.95 µM | 2.2 µM | 1.07 µM | 1.69 µM | 13.8 µM | 34.1 µM
O=C(Nc1cccc(C(F)(F)F)c1)Oc1ccc(Cl)c2cccnc12 | 11.7 µM | 7.89 µM | 6.88 µM | 14.8 µM | 5.55 µM | 16.1 µM | 13.4 µM | 8.57 µM | 12.4 µM | 9.19 µM | 1.48 µM | 1.85 µM | 1.83 µM | 0.831 µM | 2.07 µM | 0.708 µM | 3.94 µM | 0.861 µM | 3.82 µM | 0.584 µM
CC1c2[nH]c3ccccc3c2CCN1O (centres undefined) | > 100 µM | > 100 µM | > 100 µM | > 100 µM | > 100 µM | > 100 µM | > 100 µM | > 100 µM | > 100 µM | > 100 µM | – | – | – | – | – | – | – | – | – | –
O=c1/c(=N\Nc2ccccc2)c2cccc3ccc4cccc1c4c32 | > 100 µM | > 100 µM | > 100 µM | > 100 µM | > 100 µM | > 100 µM | > 100 µM | > 100 µM | > 100 µM | > 100 µM | – | – | – | – | – | – | – | – | – | –
